SMILES strings stand for the structures.

Data set [1] relates to hairpin duplex, 5'-biotin-CGA3T3C(CT)2GA3T3CG (DNA, hairpin) CGAAATTTCCTCTGAAATTTCG
Description: SPR.

A further data set deals with hERG (Homo sapiens, UniProt Q12809). Description: hERG tail current inhibition in a patch clamp assay. In kind it is cell-based. Conditions: read-out: hERG % inh @10 μM. How it is done: (§1) hEGR study and the M2 and the β2 receptor inhibition assay were performed as previously reported.
(§2) The new G-quadruplex ligands were designed in an attempt to obtain molecules with improved toxicological and on-target profiles, but maintaining the same favorable chemical and pharmacological features of the lead compound 1. With the aim of selecting the best variants, a step by step comparative analysis of their off- and on-target properties was performed. Initially the new molecules were tested for their ability to interact with and inhibit the human recombinant β2 adrenergic and M2 muscarinic receptors, and to reduce the hERG tail current in a patch clamp assay. […] Therefore, we might expect that the new ligands would impair cardiac functionality to a lesser extent than the lead molecule does.
For orientation: The hERG channel carries a current that helps repolarise heart muscle cells.

Data set [2] relates to alternating hairpin duplex sequence 5'-biotin-CGA3T3C(CT)2GA3T3CG. The data set is described as follows: SPR binding to duplex DNA. How it is done:
(§3) Oligonucleotides 5’-biotin-d [AG3 (T2AG3)3] quadruplex and 5’-biotin-CGA3T3C(CT)2GA3T3CG were purchased from Midland Certified Reagent Company (Midland, TX). Purification of DNA, preparation of solutions, collection of data, and analysis of results were conducted according to methods adopted in an earlier study.
(§4) This technique takes advantage of the refractive index change elicits by the binding of the drug with the h-Tel quadruplex DNA sequence 5’-d[AGGG(TTAGGG)3]-3’ or an alternating hairpin duplex sequence immobilized on a sensor chip surface.
For orientation: SPR reads the build-up and loss of mass on a sensor chip optically.

The next data set has as its system BJ-EHLT fibroblasts. Description: γ-H2AX/PCNA co-immunostaining (replication-dependent DNA damage). The format is cell-based, human. Conditions: 24 hrs. How it is done:
Cells were fixed in 2% formaldehyde and permeabilized in 0.25% Triton X100 in PBS for 5 min at room temperature. For immunolabeling, cells were incubated with primary antibody, then washed in PBS and incubated with the secondary antibodies. The following primary antibodies were used: pAb and mAb anti-TRF1(Abcam Ltd.; Cambridge UK); mAb (Upstate, Lake Placid, NY) and pAb anti-γH2AX (Abcam); mAb anti-PCNA (Sigma Chemicals, Milano, Italy). The following secondary antibody were used: TRITC conjugated Goat anti Rabbit, FITC conjugated Goat anti Mouse (Jackson ImmunoResearch Europe Ltd., Suffolk, UK). Fluorescence signals were recorded by using a Leica DMIRE2 microscope equipped with a Leica DFC 350FX camera and elaborated by a Leica FW4000 deconvolution software (Leica, Solms, Germany). This system permits to focus single planes inside the cell generating 3D highresolution images. For quantitative analysis of γH2AX positivity, 200 cells on triplicate slices were scored. For TIFs analysis, in each nucleus a single plane was analyzed and at least 50 nuclei per sample were scored.
Figure 2 DNA damage activation at telomeres. BJ-EHLT fibroblasts were treated for 24 hrs with compound 1 and the indicated ligands at the doses 0.1 (light-grey bars) and 0.5 μM (dark-grey bars). […] Cells with four or more γ-H2AX/TRF1 foci were scored as TIF positive. […]

The target in data set [3] is T1, human recombinant M2 muscarinic receptor (Homo sapiens, UniProt P08172).
T1 sequence (P08172 1-466): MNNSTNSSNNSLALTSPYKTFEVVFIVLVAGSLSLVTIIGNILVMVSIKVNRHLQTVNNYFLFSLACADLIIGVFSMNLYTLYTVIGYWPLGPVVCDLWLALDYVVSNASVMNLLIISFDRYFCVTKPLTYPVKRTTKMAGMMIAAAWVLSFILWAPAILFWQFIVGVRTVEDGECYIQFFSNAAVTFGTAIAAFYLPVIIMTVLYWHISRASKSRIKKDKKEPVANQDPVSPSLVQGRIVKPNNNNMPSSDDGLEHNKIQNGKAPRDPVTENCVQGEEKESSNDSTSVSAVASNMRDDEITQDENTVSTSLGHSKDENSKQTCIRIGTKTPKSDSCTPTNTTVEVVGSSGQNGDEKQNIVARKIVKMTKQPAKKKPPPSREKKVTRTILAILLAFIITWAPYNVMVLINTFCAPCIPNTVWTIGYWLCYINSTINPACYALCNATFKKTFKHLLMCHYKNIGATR
The data set is described as follows: M2 muscarinic receptor inhibition assay. The format is binding. To be noted: read-out: Muscarinic (M2) % inh @1 μM. How it is done: as §1, §2

The subject of data set [4] is h-Tel quadruplex DNA sequence 5'-d[AGGG(TTAGGG)3]-3'. Description: SPR binding to quadruplex DNA. Set-up: species or system human. How it is done: as §3, §4

Chain of hERG (Q12809 whole entry): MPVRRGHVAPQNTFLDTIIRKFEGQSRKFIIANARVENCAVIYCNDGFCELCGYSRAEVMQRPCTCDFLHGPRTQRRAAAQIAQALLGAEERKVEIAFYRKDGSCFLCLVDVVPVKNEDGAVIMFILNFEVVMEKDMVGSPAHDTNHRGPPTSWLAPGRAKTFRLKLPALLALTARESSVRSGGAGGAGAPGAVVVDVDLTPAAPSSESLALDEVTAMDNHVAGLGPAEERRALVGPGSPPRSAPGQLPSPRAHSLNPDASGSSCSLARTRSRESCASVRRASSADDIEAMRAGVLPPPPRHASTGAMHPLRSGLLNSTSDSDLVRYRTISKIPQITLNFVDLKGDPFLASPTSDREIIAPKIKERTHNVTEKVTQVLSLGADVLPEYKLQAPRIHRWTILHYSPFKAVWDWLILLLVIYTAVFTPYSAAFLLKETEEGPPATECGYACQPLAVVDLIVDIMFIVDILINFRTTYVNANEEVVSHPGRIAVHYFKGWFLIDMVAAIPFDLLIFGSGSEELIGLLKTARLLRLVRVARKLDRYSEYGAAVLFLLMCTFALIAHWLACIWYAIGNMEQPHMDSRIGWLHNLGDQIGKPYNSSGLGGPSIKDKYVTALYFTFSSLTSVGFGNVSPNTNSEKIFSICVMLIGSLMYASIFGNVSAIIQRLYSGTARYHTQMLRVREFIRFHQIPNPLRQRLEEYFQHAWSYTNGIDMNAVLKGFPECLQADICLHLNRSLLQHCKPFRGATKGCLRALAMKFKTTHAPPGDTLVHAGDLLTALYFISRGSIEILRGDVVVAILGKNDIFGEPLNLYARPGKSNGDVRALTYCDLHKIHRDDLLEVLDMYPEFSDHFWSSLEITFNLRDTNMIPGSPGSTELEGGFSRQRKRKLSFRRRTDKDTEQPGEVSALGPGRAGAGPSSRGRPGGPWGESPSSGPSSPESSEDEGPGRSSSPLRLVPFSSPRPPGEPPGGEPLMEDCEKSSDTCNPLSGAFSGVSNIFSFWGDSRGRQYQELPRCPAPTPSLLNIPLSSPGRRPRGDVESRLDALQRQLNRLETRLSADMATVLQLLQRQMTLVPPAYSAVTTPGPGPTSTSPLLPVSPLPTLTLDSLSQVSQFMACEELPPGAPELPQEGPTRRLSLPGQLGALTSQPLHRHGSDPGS

Regarding `CC(=O)NCC#Cc1ccc2c3cccc4c3c([n+](C)c2c1)-c1ccccc1N4C` [Compound 8], the K in data set [1] stood at 900000 M⁻¹. Moreover, the inhibition at 10 µM on hERG worked out at 40%. For the same molecule, the “Duplex DNA affinity K” value in data set [2] is on record as 0,9 x10^6 M^−1. In the data set with BJ-EHLT fibroblasts, the “γ-H2AX foci formation relative to PCNA status” value is reported as “almost exclusively restricted to PCNA-positive”. Moreover, the inhibition at 1 µM in data set [3] came to 99%. Besides, the “Quadruplex DNA affinity K” value in data set [4] is on record as 14,2 x10^6 M^−1. For the same molecule, the Quadruplex/duplex ratio in data set [4] (quadruplex vs duplex affinity) is 15,8.

Source of the values: PMC4193996 (Journal of Experimental & Clinical Cancer Research : CR, 2014).
